# Assay results taken from publication PMC10518257 (Nature Cancer, 2023).
# Where “and” joins values, the source holds several entries; their conditions need not be identical. Identical values can stand only once. Like-named read-outs stand apart in the source and are kept apart here.
# Assays:
# [1] = system: ECLC5 luciferase cells implanted intracranially; experiment: Intracranial efficacy study; assay type: in vivo, NSG mice; conditions: Fig. 8e (middle panel) ECLC5 luminescence; 50 mg/kg BID
# MMNK1 cholangiocytes = experiment: Growth inhibition (alamarBlue, 96 h); assay type: cell-based, human; conditions: for raw viability signal (Source Data Fig. 3b-c): MMNK, replicates
# Ba/F3 cells = experiment: Growth inhibition assay in Ba/F3 cells (CellTiter-Glo, 72 h); assay type: cell-based
# [2] = Animal weight of tumor-bearing mice
# HBECp53-EV cells = experiment: Growth inhibition (alamarBlue, 96 h); assay type: cell-based, human; conditions: for raw viability signal (Source Data Fig. 3b-c): HBEC-EV, replicate sets
# LUAD-0057BS1 cells = experiment: Growth inhibition (alamarBlue, 96 h); assay type: cell-based, human; conditions: for raw viability signal (Source Data Fig. 3b-c): LUAD-0057BS1, replicate sets
smiles,measurement,setting,value
COc1cc2c(Nc3ccc(Br)cc3F)ncnc2cc1OCC1CCN(C)CC1 [Vandetanib],Area Under Curve Mean,[1],-890991750
same,IC50,"MMNK1 cholangiocytes; Homo sapiens, read-out: IC50 for Inhibition of Growth (95% CI), MMNK1, alamarBlue, 96 h",1900 nM
same,raw viability signal (Source Data Fig. 3b-c),MMNK1 cholangiocytes; 0.01 nM,15966.6 and 15969.8
same,raw viability signal (Source Data Fig. 3b-c),MMNK1 cholangiocytes; 0.1 nM,15836.6
same,raw viability signal (Source Data Fig. 3b-c),MMNK1 cholangiocytes; 1 nM,15572.3
same,raw viability signal (Source Data Fig. 3b-c),MMNK1 cholangiocytes; 10 nM,14924.4 and 14679.1
same,raw viability signal (Source Data Fig. 3b-c),MMNK1 cholangiocytes; 100 nM,14912.5 and 14740.1
same,raw viability signal (Source Data Fig. 3b-c),MMNK1 cholangiocytes; 1000 nM,12405.8
same,raw viability signal (Source Data Fig. 3b-c),MMNK1 cholangiocytes; 10000 nM,1136.86 and 1108.37
same,GI50,"Ba/F3 cells; Ba/F3 (parental), replicate Sets 1-3, read-out: GI50",7.33 µM and 9.12 µM
same,GI50,"Ba/F3 cells; Mus musculus, BaF3, 72 h, Ba/F3, CellTiter-Glo, 72 h, read-out: GI50 value (Mean ± SD)",7.49 µM
same,GI50,"Ba/F3 cells; Mus musculus, BaF3, Ba/F3 (parental), replicate Sets 1-3, read-out: GI50",6.02 µM
same,Animal Weight,"[2]; ECLC5B xenograft, P = 0.01, animals killed early",significant weight loss
same,Animal Weight,"[2]; ECLC5 Xenografts, 100 mg/kg QD, treatment day 7, individual animals, 100 mg/kg",26 g and 24 g and 22 g (3×)
same,Animal Weight,"[2]; ECLC5 Xenografts, 100 mg/kg QD, treatment day 11, individual animals, 100 mg/kg",25 g and 23 g and 22 g (3×)
same,Animal Weight,"[2]; ECLC5 Xenografts, 100 mg/kg QD, treatment day 14, individual animals, 100 mg/kg",24 g and 22 g (2×) and 21 g (2×)
same,Animal Weight,"[2]; ECLC5 Xenografts, 100 mg/kg QD, treatment day 19, individual animals, 100 mg/kg",22 g (2×) and 21 g (3×)
same,Animal Weight,"[2]; ECLC5 Xenografts, 100 mg/kg QD, treatment day 22, individual animals",20 g
same,Animal Weight,"[2]; ECLC5 Xenografts, 100 mg/kg QD, treatment day 25, individual animals",20 g
same,Animal Weight,"[2]; LUAD-0057AS1 PDX, 50 mg per kg QD, P = 0.0015",significant reduction in animal weight
same,Animal Weight,"[2]; LUAD-0057AS1 PDX, 50 mg/kg QD, treatment day 0, individual animals, 50 mg/kg",24 g (3×) and 23 g (3×) and 25 g (2×)
same,Animal Weight,"[2]; LUAD-0057AS1 PDX, 50 mg/kg QD, treatment day 3, individual animals, 50 mg/kg",21 g (6×) and 22 g and 23 g
same,Animal Weight,"[2]; LUAD-0057AS1 PDX, 50 mg/kg QD, treatment day 7, individual animals, 50 mg/kg",21 g (3×) and 23 g and 22 g (3×) and 20 g
same,Animal Weight,"[2]; LUAD-0057AS1 PDX, 50 mg/kg QD, treatment day 10, individual animals, 50 mg/kg",20 g (2×) and 22 g (2×) and 21 g (4×)
same,Animal Weight,"[2]; LUAD-0057AS1 PDX, 50 mg/kg QD, treatment day 14, individual animals, 50 mg/kg",20 g (2×) and 21 g (6×)
same,Animal Weight,"[2]; LUAD-0057AS1 PDX, 50 mg/kg QD, treatment day 19, individual animals, 50 mg/kg",20 g (4×) and 19 g (2×) and 21 g (2×)
same,Animal Weight,"[2]; LUAD-0057AS1 PDX, 50 mg/kg QD, treatment day 23, individual animals, 50 mg/kg",19 g and 20 g
same,Animal Weight,"[2]; NIH-3T3-CCDC6::RET xenografts, 100 mg/kg QD, day 0, 100 mg/kg",22 g and 26 g and 24 g and 21 g and 20 g
same,Animal Weight,"[2]; NIH-3T3-CCDC6::RET xenografts, 100 mg/kg QD, day 2, 100 mg/kg",22 g and 23 g and 21 g and 19 g
same,Animal Weight,"[2]; NIH-3T3-CCDC6::RET xenografts, 100 mg/kg QD, day 5, 100 mg/kg",22 g and 26 g and 24 g and 20 g
same,Animal Weight,"[2]; NIH-3T3-CCDC6::RET xenografts, 100 mg/kg QD, day 8, 100 mg/kg",22 g and 25 g and 23 g and 21 g and 19 g
same,raw viability signal (Source Data Fig. 3b-c),HBECp53-EV cells; 0.01 nM,25097.6 and 25887.6 and 17676.4
same,raw viability signal (Source Data Fig. 3b-c),HBECp53-EV cells; 0.1 nM,26759 and 26118.3 and 17425.7
same,raw viability signal (Source Data Fig. 3b-c),HBECp53-EV cells; 1 nM,23471.2 and 28489.7 and 18981.5
same,raw viability signal (Source Data Fig. 3b-c),HBECp53-EV cells; 10 nM,23607.2 and 26549.6 and 18321.2
same,raw viability signal (Source Data Fig. 3b-c),HBECp53-EV cells; 100 nM,25750 and 25003
same,raw viability signal (Source Data Fig. 3b-c),HBECp53-EV cells; 1000 nM,22139.5 and 31238.9 and 18759.8
same,raw viability signal (Source Data Fig. 3b-c),HBECp53-EV cells; 10000 nM,1428.02 and 2282.52 and 1103.83
same,IC50,"HBECp53-EV cells; Homo sapiens, read-out: IC50 for Inhibition of Growth (95% CI), HBECp53-EV, alamarBlue, 96 h",3.58 µM
same,IC50,"LUAD-0057BS1 cells; Homo sapiens, read-out: IC50 for Inhibition of Growth (95% CI), LUAD-0057BS1, alamarBlue, 96 h",363 nM
same,raw viability signal (Source Data Fig. 3b-c),LUAD-0057BS1 cells; 0.01 nM,17034.2 and 23597.8
same,raw viability signal (Source Data Fig. 3b-c),LUAD-0057BS1 cells; 0.1 nM,16283.3 and 21948.2
same,raw viability signal (Source Data Fig. 3b-c),LUAD-0057BS1 cells; 1 nM,16965.6 and 22300.3
same,raw viability signal (Source Data Fig. 3b-c),LUAD-0057BS1 cells; 10 nM,14389.1 and 16776.9 and 22078.9
same,raw viability signal (Source Data Fig. 3b-c),LUAD-0057BS1 cells; 100 nM,13528.1 and 13127 and 19841.4
same,raw viability signal (Source Data Fig. 3b-c),LUAD-0057BS1 cells; 1000 nM,5066.49 and 6132.7 and 5277.44
same,raw viability signal (Source Data Fig. 3b-c),LUAD-0057BS1 cells; 10000 nM,837.183 and 963.777 and 796.086
